According to patent publication US20100254965A1, “Adenosine Signaling in Diagnosis, Treatment, and Prevention of Priapism and Erectile Dysfunction” (BOARD OF REGENTS ,THE UNIVERSITY OF TEXAS SYSTEM, priority 2006, published 2010):
“Also recorded” adds a separate entry of the source.

How the values were obtained:
[1] = test system: corpus cavernosal strips (CCS); assay: Adenosine-induced relaxation of corpus cavernosal strips (CCS); format: cell-based, mouse
Procedure: FIG. 16. […] CCS of wild type mice were treated with different concentrations of adenosine with or without DCF (5 μM), a specific inhibitor of adenosine deaminase. Then the extent (mN) of force was monitored. (b) CCS of wild type mice were treated with 100 μM adenosine in the presence of different concentrations of DCF (0-100 uM). Then the extent of force was measured. Data are expressed as mean±SE. *p<0.05, adenosine treated versus the control, **p<0.05, DCF treated versus the adenosine treated.
FIG. 17. A2BR signaling is required for adenosine-mediated corpus cavernosal strips (CCS) relaxation. (a) CCS of wild type mice were treated with different concentrations of theophiline (1-10 μM) in the presence or absence of adenosine (100 μM). The force changes were measured by force transducer. Data are expressed as mean±SE. *p<0.05, adenosine treated versus the control, **p<0.05, theophiline treated versus the untreated, N=5. (b) CCS from wild type, A2AR, A1R A2BR and A3R-deficient mice were treated with different concentrations of adenosine. The relaxation was measured by force transducer. Data are expressed as mean±SE. *p<0.05, adenosine treated versus the wild type. (c) CCS were isolated from wild type and A2BR-deficient mice and treated with different concentrations of adenosine in the presence or absence of L-NAME (100 μM) or MRS1706 (10 μM). 10 min after treatment, cellular extracts were collected and cAMP levels were measured by using a commercial enzyme immunoassay kit (Amersham Pharmacia). Data are expressed as mean±SE. *p<0.05, adenosine treated versus the control without treatment; **p<0.05, adenosine treated with MRS1706 versus the adenosine treated alone; ***p<0.05, CCS of A2BR-deficient mice treated with adenosine versus the CCS of wild type mice treated with adenosine. N=6-7. (d) CCS of A2BR and ADA double deficient mice lost the hypersensitivity to nerve stimulation compared to ADA deficient mice.
Function experiments. The tunica albuginea was cut longitudinally, starting at the most proximal point of the corpus cavernosum (CC) toward the penile shaft, and the erectile tissue was partially dissected free from the tunica. One strip of tissue (0.3×0.3×3 mm) was obtained from each corpus cavernosum. The contractility of each isolated corpus cavernosum smooth muscle cells (CCSM) strip was measured using an isometric force transducer (AD Instrument Inc., Georgia, Vt., USA). The strip was mounted in a thermostatically controlled tissue bath containing aerated PSS (mM: 119 NaCl, 4.7 KCl, 24 NaHCO 3, 1.2 KH2PO4, 2.5 CaCl2, 1.2 MgSO4, 0.023 EDTA, and 11 glucose; 5 ml volume, 95% O2 and 5% CO2, 37° C.) and stretched to a resting tension of 0.1 mN. The contractile responses of the strips were analysed by adding 10 μM phenylephrine to the bath, and force changes were recorded in response to drug application and to electrical field stimulation. The particular electrical field stimulation parameters of 0-30V, 30 HZ with a pulse width of approximately 0.5 ms, are commonly used in the mice. […] The changes of cAMP and cGMP contents in CC strips were subsequently measured by commercial enzyme immunoassay kit (Amersham Pharmacia) (see below).

[2] = test system: corpus cavernosal strips (CCS); assay: cGMP production in CCS (penile organ culture) in response to adenosine; format: cell-based, mouse
Procedure: FIG. 18. Adenosine stimulated both cAMP and cGMP induction in corpus cavernosal smooth muscle cells (CCSM) via A2BR activation. (a) Adenosine receptor expression profile in purified primary CCSM. CCSM were purified from adult mouse penes. […] (b) CCSM were isolated and cultured from mouse penes. The cells were switched to serum-free medium and treated with different concentrations of adenosine with or without A2BR antagonist (MRS1706-10 μM), A2AR antagonist (ZM241385-50 nM) or A2AR agonist (CGS-21680-10 μM) alone for 10 min. Then cellular extracts were collected and cAMP levels were measured using an ELISA kit. […] After 10 min treatment, the cellular extracts were collected and cAMP levels were measured by using a commercial enzyme immunoassay kit (Amersham Pharmacia). […] 10 min after treatment, cellular extracts were collected and cGMP levels were measured by using a commercial enzyme immunoassay kit (Amersham Pharmacia). Data are expressed as mean±SE. *p<0.05, adenosine treated versus the control; **p<0.05, adenosine treated with MRS1706 versus the adenosine treated; ***p<0.05, CCS of A2BR-deficient mice treated with adenosine versus the CCS of wild type mice treated with adenosine. […] After 10 min treatment, the cellular extracts were collected and cAMP levels were measured by using a commercial enzyme immunoassay kit (Amersham Pharmacia). […]

With `Nc1ncnc2c1ncn2[C@@H]1O[C@H](CO)[C@@H](O)[C@H]1O` [adenosine] the CCS relaxation ([1]; A1R, A2AR and A3R deficient mice and wild type mice) was “dose-dependent increase in relaxation”, the CCS relaxation ([1]; CCS from A2BR deficient mice) was “completely absent” and the CCS relaxation ([1]; CCS from wild type mice, different concentrations) was “induced CCS relaxation in a dosage dependent manner”. For the same compound, the cGMP production ([2]; CCS of A2BR-deficient mice) was “absent” and the cGMP production ([2]; wild type penile organ culture (CCS)) was “can increase cGMP production; also recorded: induced by adenosine in a dosage-dependent manner”.
